Data published in ChEMBL document CHEMBL4665704, “Carneic Acids from an Endophytic Phomopsis sp. as Dengue Virus Polymerase Inhibitors” (J Nat Prod, 2020).

Columns and labels:
[1] = test system: Dengue virus; test: Inhibition of DENV RNA-dependent RNA polymerase at 10 uM
[2] = test system: MRC5; test: Antiproliferative activity against human MRC5 cells at 10 ug/ml after 72 hrs by resazurin dye-based spectrophotometric analysis relative to control; assay type: functional; settings: dose 10 µg/ml
[3] = test system: Zika virus; test: Inhibition of NS5 in Zika virus at 10 ug/ml after 10 mins in presence of nucleotide mix by fluorescence assay; settings: dose 10.0 µg/ml
[4] = test system: Zika virus; test: Inhibition of NS5 in Zika virus at 1 ug/ml after 10 mins in presence of nucleotide mix by fluorescence assay; settings: dose 1.0 µg/ml
[5] = test system: Zika virus; test: Inhibition of NS5 in Zika virus at 50 ug/ml after 10 mins in presence of nucleotide mix by fluorescence assay; settings: dose 50.0 µg/ml
[6] = test system: Dengue virus; test: Inhibition of DENV RNA-dependent RNA polymerase at 1 ug/ml; settings: dose 1.0 µg/ml
[7] = test system: Dengue virus; test: Inhibition of DENV RNA-dependent RNA polymerase at 10 ug/ml; settings: dose 10.0 µg/ml
[8] = test system: Dengue virus; test: Inhibition of DENV RNA-dependent RNA polymerase at 50 ug/ml; settings: dose 50.0 µg/ml
[9] = Inhibition of DENV RNA-dependent RNA polymerase; set-up: species or system Dengue virus

Row | Compound | inhibition [1] | inhibition [3] | inhibition [4] | inhibition [5] | inhibition [6] | inhibition [7] | inhibition [8] | IC50 [9] | Activity [2]
1 | Nc1ncnc2c1ncn2[C@@H]1O[C@H](COP(=O)(O)OP(=O)(O)OP(=O)(O)O)C[C@H]1O | 96.1% | – | – | – | – | – | – | – | –
2 | CC(=O)OC/C=C(\C)[C@@H]1C(C)=C[C@@H]2CC[C@@H](O)[C@H](C)[C@H]2[C@@H]1/C=C/C=C/C(=O)O | – | 18.1% | 5.4% | 39.6% | 26% | 40.2% | 48.7% | – | 93.5%
3 | C/C=C(\C)[C@@H]1C(C)=C[C@@H]2C[C@@H](OC(C)=O)C[C@H](C)[C@H]2[C@@H]1/C=C/C=C/C(=O)O | – | 21.5% | 1.2% | 47.7% | 2.8% | 62.3% | 88.9% | 15.5 µM | 91.9%
4 | C/C=C(\C)[C@@H]1C(C)=C[C@@H]2C[C@@H](O)C[C@H](C)[C@H]2[C@@H]1/C=C/C=C/C(=O)O | – | 23.3% | 9.6% | 40.9% | 15.3% | 59.4% | 78.1% | 19 µM | 97%
5 | C/C=C(\C)[C@@H]1C(C)=C[C@@H]2CC(=O)C[C@H](C)[C@H]2[C@@H]1/C=C/C=C/C(=O)O | – | 24.4% | 6.3% | 49.9% | 7.9% | 65.6% | 85.1% | 11.8 µM | 96.9%
6 | CC(=O)OC/C=C(\C)[C@@H]1C(C)=C[C@@H]2CC(=O)C[C@H](C)[C@H]2[C@@H]1/C=C/C=C/C(=O)O | – | 19.3% | 13.8% | 25.4% | 0% | 36.4% | 64.6% | – | 98.8%
7 | C/C=C(\C)[C@@H]1C(C)=C[C@@H]2C[C@H](O)C[C@H](C)[C@H]2[C@@H]1/C=C/C=C/C(=O)O | – | 27.6% | 4.9% | 50.9% | 6.4% | 46% | 85% | 19 µM | 99%
8 | CC(=O)OC/C=C(\C)[C@@H]1C(C)=C[C@@H]2CC[C@H](O)[C@H](C)[C@H]2[C@@H]1/C=C/C=C/C(=O)O | – | 20.7% | 3% | 56.3% | 10.5% | 61% | 85.4% | 13.6 µM | 95.6%

Now from value to compound, other results behind:

Row | inhibition [1] | inhibition [3] | inhibition [4] | inhibition [5] | inhibition [6] | inhibition [7] | inhibition [8] | IC50 [9] | Compound | Activity [2]
9 | – | 5.5% | 8.5% | 18.4% | 6.5% | 28.7% | 43.9% | – | CC1=C[C@@H]2C[C@H](O)C[C@H](C)[C@H]2[C@H](/C=C/C=C/C(=O)O)[C@@H]1/C(C)=C/CO | 85.8%
10 | – | 3.3% | 0% | 32% | 4.7% | 28.9% | 52.3% | – | CC(=O)OC/C=C(\C)[C@@H]1C(C)=C[C@@H]2C[C@H](O)C[C@H](C)[C@H]2[C@@H]1/C=C/C=C/C(=O)O | 98.5%
11 | – | 8% | 4.8% | 33.7% | 0% | 29.7% | 42% | – | CC1=C[C@@H]2CC[C@@H](O)[C@H](C)[C@H]2[C@H](/C=C/C=C/C(=O)O)[C@@H]1/C(C)=C/CO | 98.1%
12 | – | 6% | 15.2% | 15% | 2% | 49% | 42.8% | – | CC1=C[C@@H]2C[C@@H](O)C[C@H](C)[C@H]2[C@H](/C=C/C=C/C(=O)O)[C@@H]1/C(C)=C/CO | 79.3%
13 | – | 0% | 0% | 25.5% | 0% | 23.8% | 36.7% | – | CC1=C[C@@H]2CC(=O)C[C@H](C)[C@H]2[C@H](/C=C/C=C/C(=O)O)[C@@H]1/C(C)=C/CO | 100%
14 | – | 21% | 0% | 38.3% | 13.2% | 51.2% | 75.5% | 37.5 µM | CC1=C[C@@H]2CCC[C@H](C)[C@H]2[C@H](/C=C/C=C/C(=O)O)[C@@H]1/C(C)=C/CO | 100%
